Results: patent US20240335427A1, “SMALL MOLECULE INHIBITION OF DEUBIQUITINATING ENZYME JOSEPHIN DOMAIN CONTAINING 1 (JOSD1) AS A TARGETED THERAPY FOR LEUKEMIAS WITH MUTANT JANUS KINASE 2 (JAK2)” (DANA-FARBER CANCER INSTITUTE, INC., priority 2021, published 2024)

Tests used:
[1] = target: JOSD1 (Homo sapiens (Human), UniProt Q15040); assay: In vitro JOSD1 activity assay (biochemical IC50, purified enzyme); settings: read-out: JOSD1 IC50
Method: In vitro JOSD1 activity assay & Ubiquitin-7-amido-4-methylcoumarin (AMC) assay. In vitro JOSD1 activity assay was carried out with Ubiquitin-AMC assay. […] Recombinant JOSD1 was tested for activity in a Ubiquitin-AMC assay in the presence or absence of inhibitors. […] The reaction was incubated for 6 hours at room temperature prior to the addition of 2 μM Ubiquitin-AMC (Boston Biochem) substrate. The initial rate of the reaction was measured by collecting fluorescence data at one-minute intervals over a 30-minute period using a Clariostar® fluorescence plate reader at excitation and emission wavelengths of 345 and 445 nm, respectively. The calculated initial rate values were plotted against inhibitor concentrations to determine IC50 values.
In vitro JOSD1 activity assay. Recombinant full-length JOSD1 was tested for activity in a Ubiquitin-AMC assay in the presence or absence or inhibitors. For this assay, 10 nM JOSD1 was pre-incubated with different concentrations of inhibitors or DMSO as a control in 50 mM Tris 8.0, 0.5 mM EDTA, 10 mM ovalbumin, 5 mM DTT. The reaction was incubated for 6 h at room temperature prior to the addition of 2 mM Ubiquitin-AMC (Boston Biochem) substrate. The initial rate of the reaction was measured by collecting fluorescence data at one-minute intervals over a 30-minute period using a CLARIOstar® fluorescence plate reader at excitation and emission wavelengths of 345 and 445 nm, respectively. The calculated initial rate values were plotted against inhibitor concentrations to determine IC50 values.
JOSD1 biochemical inhibition was investigated for the analogs shown using the fluorescent substrate ubiquitin-rhodamine against purified enzyme in a continuous kinetic assay.

[2] = target: UCHL1 (Homo sapiens (Human), UniProt P09936); assay: UCHL1 biochemical inhibition (ubiquitin hydrolase activity, purified enzyme)
Sequence of UCHL1 (P09936 whole entry, species assumed): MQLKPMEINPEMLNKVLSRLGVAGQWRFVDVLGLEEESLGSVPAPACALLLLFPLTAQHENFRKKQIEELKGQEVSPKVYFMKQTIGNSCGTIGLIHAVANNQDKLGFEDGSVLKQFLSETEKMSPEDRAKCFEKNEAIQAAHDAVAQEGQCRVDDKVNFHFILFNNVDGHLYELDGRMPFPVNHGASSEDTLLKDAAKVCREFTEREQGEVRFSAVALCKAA

## Cc1noc(C)c1-c1ccc2nc(NC(=O)[C@@H]3CCN(C#N)C3)sc2c1 [Compound 24]
[1]
  IC50: 0.69 µM
[2]
  IC50: 1.85 µM

## N#CN1CC[C@H](C(=O)Nc2nc3n(n2)CCN(Cc2ccccc2)C3)C1 [Compound 31]
[1]
  IC50: 1.4 µM
[2]
  IC50: 2.69 µM

## N#CN1CCC[C@H](C(=O)Nc2cn(Cc3ccccc3)cn2)C1 [Compound 42]
[1]
  IC50: 6.23 µM
[2]
  IC50: 1.08 µM

## CCn1cc(-c2ccc3nc(NC(=O)[C@@H]4CCN(C#N)C4)sc3c2)cn1 [Compound 6, (R)-1-cyano-N-(6-(1-ethyl-1H-pyrazol-4-yl)benzo[d]thiazol-2-yl)pyrrolidine-3-carboxamide]
[1]
  IC50: 0.082 µM

## Cc1noc(C)c1-c1ccc2nc(NC(=O)C3CN(C#N)C3)sc2c1 [Compound 47, 1-Cyano-N-(6-(3,5-dimethylisoxazol-4-yl)benzo[d]thiazol-2-yl)azetidine-3-carboxamide]
[2]
  IC50: 1.29 µM

## N#CN1CC[C@H](C(=O)Nc2ccc3c(cnn3Cc3ccccc3)c2)C1 [Compound 10, (S)—N-(1-benzyl-1H-indazol-5-yl)-1-cyanopyrrolidine-3-carboxamide]
[1]
  IC50: 0.16 µM

## N#CN1CC[C@H](C(=O)Nc2nc3ccc(-c4c[nH]nc4C(F)(F)F)cc3s2)C1 [Compound 22, (S)-1-cyano-N-(6-(3-(trifluoromethyl)-1H-pyrazol-4-yl)benzo[d]thiazol-2-yl)pyrrolidine-3-carboxamide]
[1]
  IC50: 0.52 µM

## C#CCNC(=O)c1ccc(-c2cnc(NC(=O)[C@H]3CCN(C#N)C3)s2)cc1 [Compound 44, (S)-1-cyano-N-(5-(4-(prop-2-yn-1-ylcarbamoyl)phenyl)thiazol-2-yl)pyrrolidine-3-carboxamide]
[1]
  IC50: 8.25 µM

## N#CN1CC[C@H](C(=O)Nc2nc(-c3ccccc3)cs2)C1 [Compound 11, (S)-1-cyano-N-(4-phenylthiazol-2-yl)pyrrolidine-3-carboxamide]
[1]
  IC50: 0.16 µM

## Cc1sc(N(C)C(=O)[C@@H]2CCCN2C#N)nc1-c1cccc(C#N)n1 [Compound 34]
[1]
  IC50: 2.13 µM

## Cc1noc(C)c1-c1ccc2nc(NC(=O)c3ccnc(C#N)n3)sc2c1 [Compound 43, 2-Cyano-N-(6-(3,5-dimethyl-1λ^3,2λ^2-isoxazol-4-yl)benzo[d]thiazol-2-yl)pyrimidine-4-carboxamide]
[1]
  IC50: 6.42 µM

## N#CN1CC[C@@H](C(=O)Nc2nc3ccc(-c4ccc(-c5ccccc5)cc4)cc3s2)C1 [Compound 14, (R)—N-(6-([1,1′-biphenyl]-4-yl)benzo[d]thiazol-2-yl)-1-cyanopyrrolidine-3-carboxamide]
[1]
  IC50: 0.27 µM

## Cc1cccc2sc(NC(=O)[C@H]3CCN(C#N)C3)nc12 [Compound 18, (S)-1-cyano-N-(4-methylbenzo[d]thiazol-2-yl)pyrrolidine-3-carboxamide]
[1]
  IC50: 0.38 µM

## N#CN1CC[C@H](C(=O)Nc2cnn(Cc3ccccc3)c2)C1 [Compound 27, (S)—N-(1-benzyl-1H-pyrazol-4-yl)-1-cyanopyrrolidine-3-carboxamide]
[1]
  IC50: 1.1 µM

## Cc1noc(C)c1-c1ccc2cnc(NC(=O)[C@H]3CCN(C#N)C3)cc2c1 [Compound 21]
[1]
  IC50: 0.46 µM

## N#CN1CC[C@H](C(=O)Nc2nc3ccccc3o2)C1 [Compound 39, (S)—N-(benzo[d]oxazol-2-yl)-1-cyanopyrrolidine-3-carboxamide]
[1]
  IC50: 4.85 µM

## N#CN1CC[C@@H](C(=O)Nc2cn(Cc3ccccc3)cn2)C1 [Compound 29]
[2]
  IC50: 2 µM

## N#CN1CC[C@H](C(=O)Nc2cn(Cc3ccccc3)cn2)C1 [Compound 32]
[2]
  IC50: 0.104 µM

## Cc1noc(C)c1-c1cccc2sc(NC(=O)[C@H]3CCN(C#N)C3)nc12 [Compound 5, (S)-1-cyano-N-(4-(3,5-dimethylisoxazol-4-yl)benzo[d]thiazol-2-yl)pyrrolidine-3-carboxamide]
[1]
  IC50: 0.074 µM

## Cc1noc(C)c1-c1ccc2sc(NC(=O)[C@H]3CCN(C#N)C3)nc2c1 [Compound 4, (S)-1-cyano-N-(5-(3,5-dimethylisoxazol-4-yl)benzo[d]thiazol-2-yl)pyrrolidine-3-carboxamide]
[1]
  IC50: 0.045 µM
